In publication PMC2653189 (PLoS ONE, 2009):

How the values were obtained:
[1] = test system: cell lines MDA-MB-453 and MCF7; experiment: Apoptosis assay, summary over the cell lines without constitutive Stat3 activity; assay type: cell-based; conditions: Homo sapiens, concentrations up to 300 µM, read-out: EC50 apoptosis induction, MDA-MB-453 and MCF7
Protocol: Human breast carcinoma cell lines MDA-MB-468, MDA-MB-231, MBA-MD-435 and MCF7 were kindly provided by Dr. Powel H. Brown (Breast Cancer Center, Baylor College of Medicine). Breast cancer cell line, MDA-MB-453 was kindly provided by Dr. Shou Jiang (Breast Cancer Center, Baylor College of Medicine). All cell lines were grown in DMEM medium supplemented with 10% fetal bovine serum (FBS), 25,000 units penicillin G, 25,000 µg streptomycin, and 131.4 mg L-Glutamine and cultured in the incubator under the condition of 95% air, 5% CO2 at 37°C [33]. Cells were seeded at 2,500 cells/cm^2 into 12-well plates. At 80% confluency, cells were washed with PBS and supplemented with fresh medium containing compound or the topoisomerase I-inhibitor, camptothecin, at 0, 0.1, 0.3, 1, 3, 10, 30, 100, 300 µM. At 24 hours, treatment was terminated by removing the medium from each well. Cells were lysed with cell lysis buffer (600 µl for 30 minutes at 25°C). Cell lysate (200 µl) was centrifuged at 200 g for 10 minutes and 20 µl of each supernatant was assayed for nucleosomes using the Cell Death Detection ELISA (Roche Applied Science) as described by the manufacturer. The percent maximum nucleosome level was calculated by dividing the nucleosome level by the maximum nucleosome level achieved in the assay and multiplying by 100.
MDA-MB-468 (panel A), MDA-MB-231 (panel B), MDA-MB-435 (panel C), MCF7 (panel D) and MDA-MB-453 (panel E) were seeded in 12-well plates, grown overnight then treated with the indicated compound for 24 hr. Cells were centrifuged and the supernatants assayed for nucleosome levels by ELISA. The percent maximum nucleosome level was calculated (nucleosome level ÷ maximum nucleosome level achieved in the assay ×100) and plotted as a function of the log compound concentration. The best-fitting curve was determined using 4-ParameterLogistic Model/Dose Response One Site/XLfit 4.2, IDBS software and was used to determine the EC50 value (Table 3).

[2] = molecular target: Stat3 (Homo sapiens, UniProt P40763); experiment: Stat3/pY-peptide binding assay (SPR, BIAcore); conditions: recombinant Stat3 500 nM; immobilized EGFR Y1068 phosphododecapeptide; 25°C; read-out: SPR IC50, inhibition of Stat3 binding to pY peptide ligand
Protocol: A control (Stat3 with DMSO but without compound) was run at the beginning and the end of each cycle (40 sample injections) to ensure that the integrity of the sensor chip was maintained throughout the cycle run. The average of the two controls was normalized to 100% and used to evaluate the effect of each compound on Stat3 binding. Responses were normalized by dividing the value at 2 min by the response obtained in the absence of compounds at 2 min and multiplying by 100.

Sequence of Stat3 (P40763 whole entry, species assumed): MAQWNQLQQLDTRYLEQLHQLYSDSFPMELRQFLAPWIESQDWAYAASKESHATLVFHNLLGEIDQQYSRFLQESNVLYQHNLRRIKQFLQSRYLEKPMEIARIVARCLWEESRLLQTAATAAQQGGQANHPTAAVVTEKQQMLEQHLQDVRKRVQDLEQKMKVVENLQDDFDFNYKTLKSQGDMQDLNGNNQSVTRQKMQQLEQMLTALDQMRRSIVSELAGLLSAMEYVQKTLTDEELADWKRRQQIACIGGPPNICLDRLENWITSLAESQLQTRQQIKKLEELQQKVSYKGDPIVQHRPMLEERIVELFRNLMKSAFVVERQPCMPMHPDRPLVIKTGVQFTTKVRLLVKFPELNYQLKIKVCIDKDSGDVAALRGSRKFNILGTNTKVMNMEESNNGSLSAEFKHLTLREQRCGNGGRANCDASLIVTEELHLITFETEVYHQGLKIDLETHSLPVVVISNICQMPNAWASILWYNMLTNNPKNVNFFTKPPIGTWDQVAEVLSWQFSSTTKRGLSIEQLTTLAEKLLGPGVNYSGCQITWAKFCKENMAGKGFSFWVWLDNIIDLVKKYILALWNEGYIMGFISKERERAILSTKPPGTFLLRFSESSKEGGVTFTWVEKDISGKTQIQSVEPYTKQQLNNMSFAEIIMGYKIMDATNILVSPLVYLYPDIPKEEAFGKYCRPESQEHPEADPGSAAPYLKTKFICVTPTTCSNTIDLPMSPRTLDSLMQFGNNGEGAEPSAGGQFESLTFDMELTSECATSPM

EC50 [1]: > 300 µM
IC50 [2]: 447 µM
SMILES: O=C(O)c1ccc(C=CC(=O)c2ccc3c(c2)OCCO3)cc1 [Cpd3, 4-[3-(2,3-dihydro-1,4-benzodioxin-6-yl)-3-oxo-1-propen-1-yl]benzoic acid]
